Data on five molecules can be found in US20230313140A1, “METHOD FOR PREPARING T CELLS FOR ADOPTIVE T CELL THERAPY” (St. Jude Children's Research Hospital, Inc., priority 2022, published 2023).

Test [1] has as its system c-Myc association with RPL26 and S6. Briefly: STORM analysis of c-Myc translating polysomes. It counts as cell-based, mouse. The following applies: brief treatment, 91 μM. The protocol:
Murine CD8^+ T Lymphocytes. […] Stochastic Optical Reconstruction Microscopy (STORM). […] PFA was added to the culture at a final concentration of 4% (v/v), the cell suspension was transferred into […], and fixation continued for 10 minutes at RT. During all sample preparation, cells were pelleted for 3 minutes at 2000 rpm between each buffer. […] Reactive groups were quenched in 20 mM glycine, and non-specific antibody binding was blocked in TBS+2% BSA. […] Cells were washed with TBS and incubated with the following secondary antibodies for 1 hour at RT: CF488-labeled donkey anti-rat (1:1000, Biotium), CF568-labeled donkey anti-Goat (1:1000, Biotium), and AF647-labeled donkey anti-rabbit (1:1000, Jackson ImmunoResearch). Following two washes with TBS, cells were post-fixed in 1% (v/v) PFA for 5 minutes at RT, pelleted and resuspended in 20 μl cell culture matrix sold under […] drop of the cell suspension was placed into a cryomold, overlaid with Tissue Freezing Medium (Fisher Scientific Company) and snap frozen on dry ice. […] cryosections were placed on poly-L-lysine coated #1.5 18-mm coverslips (Electron Microscopy Sciences) and affixed to 35-mm dishes (Mattek) using epoxy resin. […] At least 25 cells from two independent experiments were analyzed. […]

Another test has as its system ribosomal protein S6. Briefly: General TORC1 activity measured by phosphorylation of ribosomal protein S6. It counts as cell-based, mouse. The following applies: activated, undivided cells treated with dynein inhibitors. The source says: Murine CD8^+ T Lymphocytes. […] Immunofluorescence Staining and Imaging.
For a further test, the system named is p-eIF4GI. Put plainly: Imaging of polarization of p-eIF4GI in activated, undivided CD8+ T cells. The following applies: Dynarrestin 25 μM, Ciliobrevin D 50 μM.
The subject of another test is cytosolic c-Myc. Briefly: Imaging of polarization of cytosolic c-Myc in activated, undivided CD8+ T cells. The note with it: Dynarrestin 25 μM, Ciliobrevin D 50 μM.
In the next test the test system is TORC1. Put plainly: Imaging of polarization of TORC1 activity (phospho-mTOR) in activated, undivided CD8+ T cells. The following applies: Dynarrestin 25 μM, Ciliobrevin D 50 μM.
The test system of the next test is GFP-c-Myc. It counts as cell-based, mouse. The note with it: sorted first-division cells treated for 2 hours, 200 nM.
Test [2] has as its system c-Myc bound to chromatin at c-Myc binding sites. Put plainly: CUT&RUN ChIP-seq of c-Myc bound to chromatin in first-division CD8+ T cells. Type of test: cell-based, mouse. The following applies: brief treatment of activated CD8+ T cells; 200 nM, 2 hours; chromatin immunoprecipitation. As to the method:
CHIP-Sequencing. First-division CD8^+ T cells were sorted into medium with or without 200 nM silvestrol and cultured for additional 2 hours. CUT&RUN ChIP-seq experiments were performed as previously described (Meers et al. (2019) Elife 8) with slight modifications. […] Libraries were quantified using Qubit and size distribution was determined by Agilent 4200 TapeStation analysis before 15 million paired-end sequencing was performed.
Analysis for CHIP-seq Data. Paired-end sequencing reads were trimmed with Trim Galore (version 0.5.0) with default parameters. Reads were aligned to the reference mouse mm10 assembly using Bowtie 2 (version 2.3.5.1) (Langmead & Salzberg (2012) Nat. Methods 9:357-359) with settings—end-to-end—very-sensitive—nomixed—no-discordant-q—phred33-I 10-X 700. The resulting alignments, recorded in BAM file, were sorted, indexed, and marked for duplicates with Picard MarkDuplicate function (version 2.19.0, Broad Institute). […] C-Myc occupancy was normalized by scaling to 1 million mapped reads using BEDTools (version 2.27.1) (Quinlan & Hall (2010) Bioinformatics 26:841-842) and bedGraphToBigWig (version 377) (Kent et al. (2010) Bioinformatics 26:2204-2207) and visualized as heatmaps using deepTools plotHeatmap (version 3.2.1) (Ramirez et al. (2016) Nucl. Acids Res. 44:W160-165).

The test system of another test is c-Myc. Briefly: Immunofluorescence imaging of c-Myc distribution in first-division sister cells. The following applies: treatment immediately prior to the first division (last hour of activation); silvestrol 200 nM, Hippuristanol 500 nM.
Another test has as its system Sirt1. Briefly: Immunofluorescence imaging of Sirt1 distribution between dividing sister cells. The note with it: silvestrol 200 nM or Hippuristanol 500 nM, last hour of activation.
Test [3] relates to first-division c-Myc^high CD8+ T cells. Briefly: Adoptive transfer and in vivo influenza infection and challenge, donor cell frequency. The note with it: c-Myc^high cells treated 2 hours with 200 nM after sorting, transferred into recipients; A/X-31-OVA day 0, challenge day 30; spleen. Set-up: species or system mouse.

Experimental for Sirt1: Murine CD8^+ T Lymphocytes. For CD8^+ T cell stimulation, splenocytes obtained from wild-type animals were enriched for antigen presenting cells (APCs) using CD11c MicroBeads (Miltenyi Biotec) and pulsed with 5 nM of [sequence] peptide (SEQ ID NO:1; AnaSpec Inc.) for 1 hour at 37° C. CD8^+ T cells were isolated from lymph nodes using the Dynabeads Untouched Mouse CD8 Cells Kit (Invitrogen) and overlain onto the peptide-pulsed APCs. […] Whenever assessment of cell division was required, CD8^+ T cells were labeled with a fluorescent dye sold under the tradename CELLTRACE® Violet (CTV) Cell Proliferation Kit (Invitrogen) at 5 μM per 1×10^7 cells for 10 minutes at 37° C. For in vivo stimulation, CTV-labeled CD8^+ T cells were transferred by tail vein injection of wild-type recipients. Twenty-four hours after transfer, recipients were immunized by subcutaneous injection of 50 μg of [sequence] peptide (SEQ ID NO:1) into the neck region. Donor cells were obtained from axillary and brachial lymph nodes 8 hours after immunization. CD8^+ T cells were cultured in RPMI 1640 (Gibco) supplemented with 10% (v/v) heat-inactivated fetal bovine serum (FBS), lx MEM non-essential amino acids (Gibco), 1 mM Sodium pyruvate (Gibco), 2 mM L-glutamine (Gibco), 55 μM 2-mercaptoethanol (Gibco), 50 U/ml penicillin and 50 μg/ml streptomycin (Corning) at 37° C. in 5% CO2. […]
Experimental for cytosolic c-Myc: (§1) Murine CD8^+ T Lymphocytes. For CD8^+ T cell stimulation, splenocytes obtained from wild-type animals were enriched for antigen presenting cells (APCs) using CD11c MicroBeads (Miltenyi Biotec) and pulsed with 5 nM of [sequence] peptide (SEQ ID NO:1; AnaSpec Inc.) for 1 hour at 37° C. CD8^+ T cells were isolated from lymph nodes using the Dynabeads Untouched Mouse CD8 Cells Kit (Invitrogen) and overlain onto the peptide-pulsed APCs. Alternatively, CD8^+ T cells were stimulated on plate-bound anti-CD3ε (1 μg/ml, Bio X Cell), anti-CD28 (1 μg/ml, Bio X Cell), and recombinant human ICAM (0.5 μg/ml) produced in insect cells (Huppa et al. (2010) Nature 463:963-967); or by incubation with PMA (10 ng/ml, MedChemExpress) and Ionomycin (1 μM, MedChemExpress). Whenever assessment of cell division was required, CD8^+ T cells were labeled with a fluorescent dye sold under the tradename CELLTRACE® Violet (CTV) Cell Proliferation Kit (Invitrogen) at 5 μM per 1×10^7 cells for 10 minutes at 37° C. […]
(§2) The distribution of proteins in undivided cells was analyzed using Imaris 9.5 software (Oxford Instruments).
Experimental for p-eIF4GI: as §1, §2

`COc1ccc(C[C@H](N)C(=O)N[C@H]2[C@@H](O)[C@H](n3cnc4c(N(C)C)ncnc43)O[C@@H]2CO)cc1` [puromycin]: the “association of c-Myc with RPL26 and S6” value in test [1] was “significantly reduced”.
With `N#CC(=C(O)c1ccc(Cl)cc1Cl)c1nc2cc(Cl)ccc2c(=O)[nH]1` [Ciliobrevin D], the “TORC1 activity in general, phosphorylation of ribosomal protein S6” value in the test with ribosomal protein S6 was “remained unaffected”. Further, the “polarization of p-eIF4GI” value with p-eIF4GI was “abrogated the polarization”. Further, the “polarization of cytosolic c-Myc” value in the test with cytosolic c-Myc is recorded as “abrogated the polarization”. The “polarization of TORC1” value with TORC1 was “abrogated the polarization”.
With `CCOC(=O)c1sc(Nc2ccc(F)cc2F)nc1-c1ccc(N(CC)CC)cc1` [Dynarrestin], in the test on ribosomal protein S6, the “TORC1 activity in general, phosphorylation of ribosomal protein S6” value is reported as “remained unaffected”. Further, the “polarization of p-eIF4GI” value in the test with p-eIF4GI is “abrogated the polarization”. Also, the “polarization of cytosolic c-Myc” value with cytosolic c-Myc was “abrogated the polarization”. In addition, the “polarization of TORC1” value in the test with TORC1 is on record as “abrogated the polarization”.
For the molecule `COC(=O)[C@H]1[C@@H](O)[C@@]2(O)c3c(OC)cc(O[C@@H]4O[C@@H]([C@H](O)CO)CO[C@H]4OC)cc3O[C@@]2(c2ccc(OC)cc2)[C@@H]1c1ccccc1` [silvestrol], in the test with GFP-c-Myc, the “c-Myc levels in c-Myc^high cells (GFP-c-Myc MFI, FIG. 1)” value is recorded as “reduce c-Myc levels in c-Myc^high cells to those observed in c-Myc^low cells”. For the same molecule, the “c-Myc bound to chromatin at c-Myc binding sites” value in [2] was “greatly reduced”. Besides, the “c-Myc asymmetry in first-division sister cells” value in the test with c-Myc was “rapid equilibration of c-Myc levels”. For the same molecule, the “Sirt1 protein distribution between dividing sister cells” value in the test with Sirt1 is “unaffected”. In addition, the “frequency of donor cells on day 9 after A/PR/8-OVA challenge (FIG. 2)” value in [3] is “detected at numbers comparable to those found for sorted c-Myc^low cells”.
In the case of `C[C@H]1C[C@@]2(O[C@H]3C[C@H]4[C@@H]5CC[C@H]6C[C@H](O)CC[C@]6(C)[C@H]5[C@@H](O)C[C@]4(C)[C@H]3[C@@]2(C)O)OC1(C)C` [Hippuristanol], the “Sirt1 protein distribution between dividing sister cells” value with Sirt1 is “unaffected”.
